Earlier results on ten molecules are cited in patent US10851223B2, “Use of a cyclodextrin polycondensate or a composition comprising such a polycondensate, as a capturing agent” (BIOSTART, priority 2016, dated 2020).

Structures are written as SMILES.

For this data set the following is noted: octanol/water.
For the molecule `CN(C)C(=O)Nc1ccc(Cl)c(Cl)c1` [Diuron], the “Log Kow” value is on record as 2.68.
`Clc1ccc(-c2ccc(Cl)cc2Cl)cc1` [PCB 28]: the “Log Kow” value is listed as 5.62.
Consider `Clc1ccc(Cl)c(-c2cc(Cl)ccc2Cl)c1` [PCB 52], for which the “Log Kow” value was 6.12.
As to `Clc1ccc(Cl)c(-c2cc(Cl)c(Cl)cc2Cl)c1` [PCB 101], the “Log Kow” value was 6.8.
On to `Clc1ccc(-c2cc(Cl)c(Cl)cc2Cl)cc1Cl` [PCB 118], for which the “Log Kow” value was 6.84.
As to `Clc1cc(Cl)c(-c2ccc(Cl)c(Cl)c2Cl)cc1Cl` [PCB 138], the “Log Kow” value is given as 7.25.
For the molecule `Clc1cc(Cl)c(-c2cc(Cl)c(Cl)cc2Cl)cc1Cl` [PCB 153], the “Log Kow” value is reported as 7.21.
In the case of `Clc1cc(Cl)c(-c2cc(Cl)c(Cl)c(Cl)c2Cl)cc1Cl` [PCB 180], the “Log Kow” value is 7.7.
Regarding `c1ccc2c(c1)c1cccc3ccc4cccc2c4c31` [benzopyrene], the “Log Kow” value was 6.07.
In the case of `CCCCC(CC)COC(=O)c1ccccc1C(=O)OCC(CC)CCCC` (stereo not shown) [di(2-ethylhexyl)-phthalate], the “Log Kow” value is listed as 7.6.
